How the values were obtained:
Assay type in all cases: biochemical
MMP-9 = molecular target: T1, MMP-9 (Homo sapiens, UniProt P14780); assay: In vitro fluorometric inhibition assay of MMPs: MMP-9
T1 construct: gift of Prof; Gillian Murphy (Oncology Department, Cambridge University, UK)
Experimental: (§1) Analysis of the In Vitro Inhibition Activity of Zinc Metalloproteinases: In Vitro Inhibition of MMMPs
The human recombinant Progelatinase A (pro-MMP-2), B (pro-MMP-9), MMP-14cd and MMP-16cd, were provided by Prof. Gillian Murphy (Oncology Department, Cambridge University, UK); pro-MMP-1, pro-MMP-3, pro-MMP-7, pro-MMP-8, pro-MMP-13 and pro-MMP-14 were bought from Calbiochem. […] Pro-MMP-14 and pro-MMP-3 were activated with trypsin 5 μg/ml for 15 min at 37° C. followed the soybean trypsin inhibitor (SBTI) 23 μg/ml for pro-MMP-14 and 62 μg/ml for pro-MMP-3. The catalytic domains of MMP-14 and MMP-16 were utilized without activation.
For the assay measurements, the stock solutions of the inhibitor (DMSO, 100 mM) were further diluted up to 7 different concentrations (0.01 nM-300 μM) for each MMP, in the buffer for the fluorometric assay (FAB: Tris 50 mM, pH=7.5, NaCl 150 mM, CaCl2 10 mM, Brij 35 0.05% and DMSO 1%). […] After the addition of solution of fluorogenic substrate 200 μM Mca-Arg-Pro-Lys-Pro-Val-Glu-Nva-Trp-Arg-Lys(Dnp)-NH2 (Sigma) for MMP-3 and Mca-Lys-Pro-Leu-Gly-Leu-Dpa-Ala-Arg-NH2 (Bachem) for all the other enzymes in DMSO (final concentration 2 μM), the hydrolysis were monitored every 15 sec for 20 min, recording the increase in fluorescence (λex=325 nm, λem=400 nm) with a Molecular Device SpectraMax Gemini XS plates reader. The assays were made in triplicate in a total volume of 200 μl per well on 96 well-plates for microtitolation (Corning, black, NBS). The control wells were without inhibitor.
(§2) The inhibition activity of MMP was expressed in relative fluorescence unit (RFU). The percentage of inhibition was calculated using control reactions without inhibitor.
(§3) IC50 was determined using the formula: Vi/Vo=1/(1+[I]/IC50), wherein Vi is the initial rate of the substrate scission in presence of the inhibitor at the concentration [I] and Vo is the initial rate in the absence of inhibitor. The results were analyzed with the SoftMax Pro software and the GraFit software.

MMP-2 = molecular target: T2, MMP-2 (Homo sapiens, UniProt P08253); assay: In vitro fluorometric inhibition assay of MMPs: MMP-2
T2 construct: gift of Prof; Gillian Murphy (Oncology Department, Cambridge University, UK)
T2 sequence (P08253 110-660): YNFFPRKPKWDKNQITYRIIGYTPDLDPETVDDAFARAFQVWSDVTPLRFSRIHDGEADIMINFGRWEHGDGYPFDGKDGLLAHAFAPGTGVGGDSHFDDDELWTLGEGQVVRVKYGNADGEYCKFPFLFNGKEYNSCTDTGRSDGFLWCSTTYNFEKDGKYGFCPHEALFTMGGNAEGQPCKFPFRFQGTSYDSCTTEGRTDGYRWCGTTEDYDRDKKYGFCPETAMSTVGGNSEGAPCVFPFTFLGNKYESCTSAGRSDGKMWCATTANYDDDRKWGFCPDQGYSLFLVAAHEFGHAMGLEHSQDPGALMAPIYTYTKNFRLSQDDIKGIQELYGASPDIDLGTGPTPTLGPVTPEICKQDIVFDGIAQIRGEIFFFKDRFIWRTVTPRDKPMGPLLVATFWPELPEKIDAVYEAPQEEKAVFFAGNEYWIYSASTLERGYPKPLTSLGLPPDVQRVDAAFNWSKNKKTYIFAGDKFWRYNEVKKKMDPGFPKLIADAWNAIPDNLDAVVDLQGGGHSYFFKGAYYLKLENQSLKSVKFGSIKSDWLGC
Experimental: as §1
(§4) The human recombinant Progelatinase A (pro-MMP-2), B (pro-MMP-9), MMP-14cd and MMP-16cd, were provided by Prof. Gillian Murphy (Oncology Department, Cambridge University, UK); pro-MMP-1, pro-MMP-3, pro-MMP-7, pro-MMP-8, pro-MMP-13 and pro-MMP-14 were bought from Calbiochem. The proenzymes were activated immediately before the use with p-aminophenylmercuric acetate (APMA 2 mM for 1 h at 37° C. for MMP-1, MMP-2 and MMP-8, 1 mM for 1 h at 37° C. for MMP-9 and MMP-7, 1 mM for 30 min at 37° C. for MMP-13). Pro-MMP-14 and pro-MMP-3 were activated with trypsin 5 μg/ml for 15 min at 37° C. followed the soybean trypsin inhibitor (SBTI) 23 μg/ml for pro-MMP-14 and 62 μg/ml for pro-MMP-3. The catalytic domains of MMP-14 and MMP-16 were utilized without activation.
(§5) For the assay measurements, the stock solutions of the inhibitor (DMSO, 100 mM) were further diluted up to 7 different concentrations (0.01 nM-300 μM) for each MMP, in the buffer for the fluorometric assay (FAB: Tris 50 mM, pH=7.5, NaCl 150 mM, CaCl2 10 mM, Brij 35 0.05% and DMSO 1%). The solutions of activated enzyme (final concentrations 2.9 nM for MMP-2, 2.7 nM for MMP-9, 2.4 nM for MMP-7, 1 nM for MMP-14 and MMP-3, 1.5 nM for MMP-8 and MMP-16cd, 0.84 nM for MMP-14cd, 0.66 nM for MMP-13 and 0.20 nM for MMP-1) and of inhibitor were incubated in the assay buffer for 4 h at 25° C. After the addition of solution of fluorogenic substrate 200 μM Mca-Arg-Pro-Lys-Pro-Val-Glu-Nva-Trp-Arg-Lys(Dnp)-NH2 (Sigma) for MMP-3 and Mca-Lys-Pro-Leu-Gly-Leu-Dpa-Ala-Arg-NH2 (Bachem) for all the other enzymes in DMSO (final concentration 2 μM), the hydrolysis were monitored every 15 sec for 20 min, recording the increase in fluorescence (λex=325 nm, λem=400 nm) with a Molecular Device SpectraMax Gemini XS plates reader. The assays were made in triplicate in a total volume of 200 μl per well on 96 well-plates for microtitolation (Corning, black, NBS). The control wells were without inhibitor.
as §2, §3

MMP-1 = molecular target: T3, MMP-1 (Homo sapiens, UniProt P03956); assay: In vitro fluorometric inhibition assay of MMPs: MMP-1; settings: Table I, cells without (*)
T3 construct: purchased Calbiochem
T3 sequence (P03956 100-469): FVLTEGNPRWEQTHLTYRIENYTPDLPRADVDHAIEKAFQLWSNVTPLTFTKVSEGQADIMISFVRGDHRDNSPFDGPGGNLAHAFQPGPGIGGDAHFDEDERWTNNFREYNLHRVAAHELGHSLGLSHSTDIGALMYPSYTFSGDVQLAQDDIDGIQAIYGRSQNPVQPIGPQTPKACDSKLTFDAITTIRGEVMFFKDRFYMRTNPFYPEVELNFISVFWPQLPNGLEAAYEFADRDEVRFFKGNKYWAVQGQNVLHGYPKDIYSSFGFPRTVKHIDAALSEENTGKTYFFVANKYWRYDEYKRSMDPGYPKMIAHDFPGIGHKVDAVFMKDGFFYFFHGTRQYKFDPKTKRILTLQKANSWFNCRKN
Experimental: as §1, §4, §5, §2, §3

MMP-14 = molecular target: T4, MMP-14 (Homo sapiens, UniProt P50281); assay: In vitro fluorometric inhibition assay of MMPs: MMP-14
T4 construct: purchased Calbiochem
Experimental: as §1, §4, §5, §2, §3

T1 sequence (P14780 107-707 limits assumed): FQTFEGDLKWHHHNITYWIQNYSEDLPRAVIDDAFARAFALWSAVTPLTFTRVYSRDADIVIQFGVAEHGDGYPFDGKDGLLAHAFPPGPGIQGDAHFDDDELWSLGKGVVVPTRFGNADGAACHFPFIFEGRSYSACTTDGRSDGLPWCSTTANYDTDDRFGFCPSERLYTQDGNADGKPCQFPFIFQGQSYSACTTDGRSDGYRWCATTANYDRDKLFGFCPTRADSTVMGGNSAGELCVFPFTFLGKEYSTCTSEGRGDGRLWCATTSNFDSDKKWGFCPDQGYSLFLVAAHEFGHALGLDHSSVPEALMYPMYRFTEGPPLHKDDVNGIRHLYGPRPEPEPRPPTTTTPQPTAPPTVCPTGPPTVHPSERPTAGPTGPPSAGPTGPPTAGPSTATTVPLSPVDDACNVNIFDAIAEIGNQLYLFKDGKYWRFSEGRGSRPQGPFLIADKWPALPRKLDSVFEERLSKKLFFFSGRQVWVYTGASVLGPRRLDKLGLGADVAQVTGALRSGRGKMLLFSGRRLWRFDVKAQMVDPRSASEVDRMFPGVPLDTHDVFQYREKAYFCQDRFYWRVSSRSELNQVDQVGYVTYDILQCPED

O=C1CC(c2ccccc2Sc2ccc(-c3ccccc3)cc2)C(=O)N1O (centres unmarked)
IC50 (MMP-9; Table I, cells without (*)): 35 ± 2.7 µM | IC50 (MMP-2; Table I, cells without (*)): 12 ± 0.8 µM | IC50 (MMP-1): 83 ± 11 µM

O=C1CC(c2ccccc2S(=O)(=O)c2ccc(-c3ccccc3)cc2)C(=O)N1O (centres unmarked)
IC50 (MMP-9; Table I, cells without (*)): 47 ± 2.7 µM | IC50 (MMP-2; Table I, cells without (*)): 7 ± 0.5 µM | IC50 (MMP-1): 186 ± 8 µM

O=C(O)CCC(C(=O)O)c1ccccc1Sc1ccc(-c2ccccc2)cc1 (centres unmarked)
IC50 (MMP-9; Table I, cells without (*)): 17 ± 0.96 µM | IC50 (MMP-2; Table I, cells without (*)): 1.8 ± 0.16 µM | IC50 (MMP-1): 190 ± 10 µM

COc1ccc(Oc2ccc(Sc3ccccc3C(=O)NS(C)(=O)=O)cc2)cc1 [Compound 8, 2-(4-(4-methoxyphenoxy)phenylthio)-N-(methylsulphonyl)benzamide]
IC50 (MMP-9; Table III, cells marked (*)): 17.8 ± 1.3 µM | IC50 (MMP-2; Table III, cells marked (*)): 12.2 ± 1.6 µM | IC50 (MMP-14; Table III, cells marked (*)): 79 ± 6 µM

COc1ccc(Oc2ccc(Sc3ccccc3CC(=O)O)cc2)cc1 [Compound 11, 2-(2-(4-(4-methoxyphenoxy)phenylthio)phenyl)acetic acid]
IC50 (MMP-9; Table III, cells without (*)): 48.7 ± 8.6 µM | IC50 (MMP-2; Table III, cells without (*)): 20 ± 8 µM | IC50 (MMP-14; Table III, cells without (*)): 297 ± 64 µM

COc1ccc(Oc2ccc(Sc3ccccc3CC(=O)NO)cc2)cc1 [Compound 13]
IC50 (MMP-9; Table III, cells without (*)): 0.105 ± 0.013 µM | IC50 (MMP-2; Table III, cells without (*)): 0.568 ± 0.031 µM

COc1ccc(-c2ccc(Sc3ccccc3CC(=O)O)cc2)cc1 [Compound 22, 2-(2-(4′-methoxybiphenyl-4-ylthio)phenyl)acetic acid]
IC50 (MMP-2; Table II, cells marked (*)): 0.114 ± 0.005 µM | IC50 (MMP-14; Table II, cells marked (*)): 3.65 ± 0.2 µM

COc1ccc(-c2ccc(Sc3ccccc3CC(=O)NS(C)(=O)=O)cc2)cc1 [Compound 25, 2-(2-(4′-methoxybiphenyl-4-ylthio)phenyl)-N-(methylsulphonyl)acetamide]
IC50 (MMP-9; Table II, cells without (*)): 17.7 ± 1.4 µM | IC50 (MMP-2; Table II, cells without (*)): 5.34 ± 0.65 µM | IC50 (MMP-14; Table II, cells without (*)): 127 ± 6.9 µM

O=C(Cc1ccccc1Sc1ccc(-c2ccsc2)cc1)NO [Compound 30, N-hydroxy-2-(2-(4-(thiophene-3-yl)phenylthio)phenyl)acetamide]
IC50 (MMP-9; Table I, cells marked (*)): 1.11 ± 0.136 µM | IC50 (MMP-2; Table I, cells marked (*)): 0.0379 ± 0.0022 µM

COc1ccc(Oc2ccc(S(=O)(=O)c3ccccc3C(=O)NS(C)(=O)=O)cc2)cc1 [Compound 38, 2-(4-(4-methoxyphenoxy)phenylsulphonyl)-N-(methylsulphonyl)benzamide]
IC50 (MMP-9; Table III, cells marked (*)): 101 ± 5.9 µM | IC50 (MMP-2; Table III, cells marked (*)): 20.5 ± 2.1 µM | IC50 (MMP-14; Table III, cells marked (*)): 528 ± 58.1 µM

COc1ccc(Oc2ccc(Sc3ccccc3CC(=O)NS(C)(=O)=O)cc2)cc1 [Compound 39, 2-(2-(4-(4-methoxyphenoxy)phenylthio)phenyl)-N-(methylsulphonyl)acetamide]
IC50 (MMP-9; Table III, cells marked (*)): 106 ± 23.6 µM | IC50 (MMP-2; Table III, cells marked (*)): 183 ± 18.4 µM | IC50 (MMP-14; Table III, cells marked (*)): 272 ± 18.7 µM

COc1ccc(Oc2ccc(S(=O)(=O)c3ccccc3CC(=O)NS(C)(=O)=O)cc2)cc1 [Compound 43, 2-(2-(4-(4-methoxyphenoxy)phenylsulphonyl)phenyl)-N-(methylsulphonyl)acetamide]
IC50 (MMP-9; Table III, cells marked (*)): 47.3 ± 2 µM | IC50 (MMP-2; Table III, cells marked (*)): 78.6 ± 6.3 µM | IC50 (MMP-14; Table III, cells marked (*)): 260 ± 30.1 µM

COc1ccc(-c2ccc(Sc3ccccc3C(=O)O)cc2)cc1 [Compound 47, 2-(4′-methoxybiphenyl-4-ylthio)benzoic acid]
IC50 (MMP-9; Table II, cells marked (*)): 83.5 ± 5.87 µM | IC50 (MMP-2; Table II, cells marked (*)): 62.5 ± 6.27 µM | IC50 (MMP-14; Table II, cells marked (*)): 116 ± 9.79 µM

COc1ccc(-c2ccc(Sc3ccccc3C(=O)NS(C)(=O)=O)cc2)cc1 [Compound 48, 2-(4′-methoxybiphenyl-4-ylthio)-N-(methylsulphonyl)benzamide]
IC50 (MMP-2; Table II, cells without (*)): 41.8 ± 5.1 µM | IC50 (MMP-14; Table II, cells without (*)): 73.1 ± 7.9 µM

COc1ccc(-c2ccc(Sc3ccccc3C(C)C(=O)O)cc2)cc1 (centres unmarked) [Compound 54]
IC50 (MMP-2; Table II, cells marked (*)): 0.159 ± 0.0068 µM | IC50 (MMP-14; Table II, cells marked (*)): 9.95 ± 0.916 µM

COc1ccc(-c2ccc(Sc3ccccc3C(C)C(=O)NO)cc2)cc1 (centres unmarked) [Compound 56a, N-hydroxy-2-(2-(4′-methoxybiphenyl-4-ylthio)phenyl)propanamide]
IC50 (MMP-2; Table II, cells marked (*)): 0.0272 ± 0.0016 µM | IC50 (MMP-14; Table II, cells marked (*)): 6.5 ± 0.597 µM

COc1ccc(-c2ccc(Sc3ccccc3C(C)C(=O)NS(C)(=O)=O)cc2)cc1 (centres unmarked) [Compound 57, 2-(2-(4′-methoxybiphenyl-4-ylthio)phenyl)-N-(methylsulphonyl)propanamide]
IC50 (MMP-9; Table II, cells without (*)): 73.7 ± 7.8 µM | IC50 (MMP-2; Table II, cells without (*)): 65.8 ± 5.8 µM | IC50 (MMP-14; Table II, cells without (*)): 156 ± 9.5 µM

COc1ccc(Oc2ccc(S(=O)(=O)c3ccccc3CP(=O)(O)O)cc2)cc1 [Compound 72, 2-(4-(4-methoxyphenoxy)phenylsulphonyl)benzyl phosphonic acid]
IC50 (MMP-9; Table III, pH 6.7): 0.168 ± 0.027 µM | IC50 (MMP-2; Table III, pH 6.7): 0.571 ± 0.045 µM | IC50 (MMP-14; Table III, pH 6.7): 1.95 ± 0.212 µM

COc1ccc(-c2ccc(S(=O)(=O)c3ccccc3CP(=O)(O)O)cc2)cc1 [Compound 86, 2-(4′-methoxybiphenyl-4-ylsulphonyl)benzylphosphonic acid]
IC50 (MMP-9; Table II, cells marked (*)): 2.47 ± 0.212 µM | IC50 (MMP-2; Table II, cells marked (*)): 0.384 ± 0.031 µM | IC50 (MMP-14; Table II, cells marked (*)): 8.33 ± 0.511 µM

COc1ccc(-c2ccc(S(=O)(=O)c3ccccc3C(=O)NS(C)(=O)=O)cc2)cc1 [Compound 106, 2-(4′-methoxybiphenyl-4-yl-sulphonyl)-N-(methylsulphonyl)benzamide]
IC50 (MMP-2; Table II, cells without (*)): 22.5 ± 2.1 µM | IC50 (MMP-14; Table II, cells without (*)): 64.7 ± 2.9 µM

Source: US8093386B2, “Thioaryl substituted inhibitors of zinc proteases and their use” (Bracco Imaging S.p.A, priority 2006, dated 2012)
